This is an account of results in paper PMC7918497, “Proposed Mechanism for the Antitrypanosomal Activity of Quercetin and Myricetin Isolated from Hypericum afrum Lam.: Phytochemistry, In Vitro Testing and Modeling Studies” (Molecules, 2021).

Where two headings read alike, the source gives them in different places.

Data set [1] relates to L. donovani promastigotes. The data set is described as follows: In vitro antileishmanial assay, L. donovani promastigotes (Alamar Blue). The following applies: for IC50: read-out: L. Donovani Promastigote IC50; for IC90: read-out: L. Donovani Promastigote IC90. The data set is classed as cell-based, Leishmania donovani. The method, then: (§1) IC50 and IC90 values were computed from the dose–response curves using XLfit software. DFMO (difluoromethylornithine) was used as the positive control. The antiprotozoal activities of the H. afrum fractions and isolated compounds were evaluated in vitro against L. donovani promastigotes, axenic amastigotes and intracellular amastigotes in THP1 cells. The fractions and some isolated compounds were also evaluated against T. brucei trypomastigote forms.
A general note: Resazurin is reduced to fluorescent resorufin, in cell work by metabolically active cells.

For data set [2], the system named is L. donovani axenic amastigotes. The data set is described as follows: In vitro antileishmanial assay, L. donovani axenic amastigotes (Alamar Blue). Type of data set: cell-based, Leishmania donovani. As to the method: as §1
A short description of data set [3]: General cytotoxicity against THP1 cells. The data set is classed as cell-based, human. The following applies: human, THP1 cells.
Data set [4] has as its system L. donovani intracellular amastigotes in THP1 cells. The data set is described as follows: In vitro antileishmanial assay, intracellular amastigotes in THP1 cells (parasite rescue and transformation assay). Type of data set: cell-based, Leishmania donovani. The method, then:
as §1

Data set [5] deals with TbHK1. More on the design: method as in PMID 20971104. The following applies: read-out: TbHK1 inhibition IC50; cited from earlier work.
Data set [6] deals with Trypanosoma brucei trypomastigotes. The data set is described as follows: In vitro antitrypanosomal assay, T. brucei trypomastigotes (Alamar Blue). Type of data set: cell-based. The method, then:
as §1

For data set [7], the system named is THP1 cells. Put plainly: General cytotoxicity against THP1 cells. The data set is classed as cell-based, human. Particulars: Table 1.
[8] abbreviates: Leishmania donovani, fractions, Table 2.
Setting [9] is: Leishmania donovani, Table 2, read-out: L. Donovani Amastigote IC50.
[10] abbreviates: Leishmania donovani, Table 2, read-out: L. Donovani Amastigote IC90.
Where [11] appears, read: Leishmania donovani, THP-1, Table 2, read-out: L. Donovani Amastigote/THP IC50.
Where [12] appears, read: Leishmania donovani, THP-1, Table 2, read-out: L. Donovani Amastigote/THP IC90.
Where [13] appears, read: Leishmania donovani, isolated compounds, Table 1, tested range 0.4–10 ug/mL.
[14] abbreviates: Leishmania donovani, Table 1, read-out: L. Donovani Amastigote IC50.
Setting [15] is: Leishmania donovani, Table 1, read-out: L. Donovani Amastigote IC90.
Setting [16] is: Trypanosoma brucei, isolated compounds.
[17] abbreviates: Leishmania donovani, THP-1, Table 1, read-out: L. Donovani Amastigote/THP1 IC50.
[18] abbreviates: Leishmania donovani, THP-1, Table 1, read-out: L. Donovani Amastigote/THP1 IC90.
Setting [19] is: isolated compounds, Table 1, tested range 0.4–10 ug/mL.

For the molecule `C[C@@H]1[C@H](O)[C@@H](C)/C=C/C=C/C=C/C=C/C=C/C=C/C=C/[C@H](O[C@@H]2O[C@H](C)[C@@H](O)[C@H](N)[C@@H]2O)C[C@@H]2O[C@](O)(C[C@@H](O)C[C@@H](O)[C@H](O)CC[C@@H](O)C[C@@H](O)CC(=O)O[C@H]1C)C[C@H](O)[C@H]2C(=O)O` [AMB, Amphotericin, reference compound], the IC50 in data set [1] (setting [8]) was 0.138 mg/L; in data set [2] (setting [9]), 0.304 mg/L; in data set [3] (Table 1), > 2 µM; in data set [3] (Table 2), > 2 mg/L; in data set [4] (setting [11]), 0.187 mg/L. For the same molecule, the IC90 is 0.188 mg/L in data set [1] (setting [8]); 0.362 mg/L in data set [2] (setting [10]); > 2 µM in data set [3] (Table 1); > 2 mg/L in data set [3] (Table 2); 0.264 mg/L in data set [4] (setting [12]).
Turning to `O=c1c(O)c(-c2ccc(O)c(O)c2)oc2cc(O)cc(O)c12` [Compound 1, quercetin], the IC50 is > 10 µM in data set [1] (setting [13]); > 10 µM in data set [2] (setting [14]); 4.1 µM in data set [5]; 7.52 µM in data set [6] (setting [16]); > 10 µM in data set [3] (Table 1); > 10 µM in data set [4] (setting [17]). The IC90 is > 10 µM in data set [1] (setting [13]); > 10 µM in data set [2] (setting [15]); 9.76 µM in data set [6] (setting [16]); > 10 µM in data set [3] (Table 1); > 10 µM in data set [4] (setting [18]).
Take `O=c1c(-c2c(O)cc(O)c3c(=O)cc(-c4ccc(O)cc4)oc23)c(-c2ccc(O)cc2)oc2cc(O)cc(O)c12` [Compound 3, biapigenin]: the IC50 in data set [1] (setting [13]), in data set [2] (setting [14]), in data set [6] (setting [16]), in data set [3] (Table 1) and in data set [4] (setting [17]) was > 10 µM each time. The IC90 in data set [1] (setting [13]), in data set [2] (setting [15]), in data set [6] (setting [16]), in data set [3] (Table 1) and in data set [4] (setting [18]) was > 10 µM in each case.
As for `O=c1c(O)c(-c2cc(O)c(O)c(O)c2)oc2cc(O)cc(O)c12` [Compound 4, myricetin], the IC50 in data set [1] (setting [13]) was > 10 µM; in data set [2] (setting [14]), > 10 µM; in data set [5], 48.9 µM; in data set [6] (setting [16]) it was 5.71 µM; in data set [3] (Table 1), > 10 µM; in data set [4] (setting [17]) it was > 10 µM. In addition, the IC90 is > 10 µM in data set [1] (setting [13]); > 10 µM in data set [2] (setting [15]); 7.97 µM in data set [6] (setting [16]); > 10 µM in data set [3] (Table 1); > 10 µM in data set [4] (setting [18]).
Regarding `O=c1c(O[C@@H]2O[C@H](CO)[C@H](O)[C@H](O)[C@H]2O)c(-c2ccc(O)c(O)c2)oc2cc(O)cc(O)c12` [Compound 5, hyperoside], the IC50 in data set [1] (setting [13]), in data set [2] (setting [14]), in data set [6] (setting [16]), in data set [3] (Table 1) and in data set [4] (setting [17]) was > 10 µM throughout. In addition, the IC90 in data set [1] (setting [13]), in data set [2] (setting [15]), in data set [6] (setting [16]), in data set [3] (Table 1) and in data set [4] (setting [18]) was > 10 µM throughout.
`O=c1c(OC2OC(CO)C(O)C(O)C2O)c(-c2cc(O)c(O)c(O)c2)oc2cc(O)cc(O)c12` [Compound 6, myricetin-3-O-β-D-galactopyranoside]: the IC50 in data set [1] (setting [13]), in data set [2] (setting [14]), in data set [6] (setting [16]), in data set [3] (Table 1) and in data set [4] (setting [17]) was > 10 µM throughout. The IC90 in data set [1] (setting [13]), in data set [2] (setting [15]), in data set [6] (setting [16]), in data set [3] (Table 1) and in data set [4] (setting [18]) was > 10 µM in each case.
`O=c1c(O)c(-c2cc(O)c(O)c(OC3OC(CO)C(O)C(O)C3O)c2)oc2cc(O)cc(O)c12` [Compound 7, myricetin-3’-O-β-D-glucopyranoside]: the IC50 in data set [1] (setting [13]), in data set [2] (setting [14]), in data set [6] (setting [16]), in data set [3] (Table 1) and in data set [4] (setting [17]) was > 10 µM throughout. In addition, the IC90 in data set [1] (setting [13]), in data set [2] (setting [15]), in data set [6] (setting [16]), in data set [3] (Table 1) and in data set [4] (setting [18]) was > 10 µM in each case.
`NCCC[C@](N)(C(=O)O)C(F)F` [DFMO, α-difluoromethylornithine, reference compound]: in data set [6] (fractions), the “T. Brucei IC50” value was 3.634 mg/L and the “T. Brucei IC90” value stood at 8.804 mg/L. For the same molecule, in data set [6] (isolated compounds), the IC50 was 3.63 µM and the IC90 was 8.8 µM.
For `N=C(N)c1ccc(OCCCCCOc2ccc(C(=N)N)cc2)cc1` [PENT, Pentamidine, reference compound], the IC50 was 1.48 mg/L in data set [1] (setting [8]); 9.58 mg/L in data set [2] (setting [9]); 0.001 mg/L in data set [6] (Trypanosoma brucei, fractions); 0.001 µM in data set [6] (setting [16]); > 10 µM in data set [3] (Table 1); > 10 mg/L in data set [3] (Table 2). Also, the IC50 in data set [4] (setting [11]) worked out at 1.16 mg/L. For the same molecule, the IC90 in data set [1] (setting [8]) is 2.38 mg/L; in data set [2] (setting [15]) it was > 10 µM; in data set [2] (setting [10]) it was > 10 mg/L; in data set [6] (Trypanosoma brucei, fractions) it was 0.002 mg/L; in data set [6] (setting [16]) it was 0.002 µM; in data set [3] (Table 1), > 10 µM. Besides, the IC90 in data set [3] (Table 2) is > 10 mg/L; in data set [4] (setting [12]) it was 5.59 mg/L.
Turning to myricitrin [Compound 2], the IC50 is > 10 µM in data set [1] (setting [19]); > 10 µM in data set [2] (Table 1, read-out: L. Donovani Amastigote IC50); > 10 µM in data set [6] (isolated compounds); > 10 µM in data set [7]; > 10 µM in data set [4] (Table 1, read-out: L. Donovani Amastigote/THP1 IC50). Further, the IC90 in data set [1] (setting [19]) is > 10 µM; in data set [2] (Table 1, read-out: L. Donovani Amastigote IC90), > 10 µM; in data set [6] (isolated compounds) it was > 10 µM; in data set [7] it was > 10 µM; in data set [4] (Table 1, read-out: L. Donovani Amastigote/THP1 IC90), > 10 µM.
